Source: patent US10281476B2, “Methods to identify modulators of RyR calcium channels” (REGENTS OF THE UNIVERSITY OF MINNESOTA, priority 2013, dated 2019)
Where a SMILES comes first, the peptide text is derived from it. The star is where a group is joined. 5FAM = O=C1OC2(c3ccc(O)cc3Oc3cc(O)ccc32)c2ccc(C(=O)*)cc21

What was measured:
RyR2 [1] = molecular target: T1, RyR2 (Rattus norvegicus, UniProt B0LPN4); experiment: HF647-DPc10 wash-in kinetics by FRET from F-FKBP (donor quench) in permeabilized myocytes; format: binding; set-up: These fluorescent proteins were added to saponin-permeabilized myocytes with or without pre-equilibration with saturating DPc10 concentration; endogenous in cells; host or cells: saponin-permeabilized rat ventricular myocytes; details: myocytes
Method: The FRET pair we used in this consisted of ALEXA FLUOR™ 488 (donor) covalently attached to FKBP12.6 (F-FKBP) and HiLyte Fluor™647 (acceptor) covalently attached to DPc10 (F-DPc10).^8 To detect F-DPc10 specifically bound to RyR2, we measured donor fluorescence intensities through a 500-530 nm bandpass filter before and after equilibration with acceptor (donor quenching method). The FRET efficiency (E) was calculated according to: E=1-FDA/FD, Where FD and FDA are the fluorescence intensities of the donor-only and donor-plus-acceptor samples, respectively (Oda et al., Circ Res. 2013;112:487-497). Statistics
Next we tested whether RyR2 oxidation would increase HF647-DPc10 access. Here, we used FRET between F-FKBP as a donor and HF647-DPc10 as an acceptor, to detect DPc10 that specifically binds at RyR2 (Oda et al., Circ Res. 2013; 112:487-497).
Target sequence in this assay (B0LPN4 whole entry): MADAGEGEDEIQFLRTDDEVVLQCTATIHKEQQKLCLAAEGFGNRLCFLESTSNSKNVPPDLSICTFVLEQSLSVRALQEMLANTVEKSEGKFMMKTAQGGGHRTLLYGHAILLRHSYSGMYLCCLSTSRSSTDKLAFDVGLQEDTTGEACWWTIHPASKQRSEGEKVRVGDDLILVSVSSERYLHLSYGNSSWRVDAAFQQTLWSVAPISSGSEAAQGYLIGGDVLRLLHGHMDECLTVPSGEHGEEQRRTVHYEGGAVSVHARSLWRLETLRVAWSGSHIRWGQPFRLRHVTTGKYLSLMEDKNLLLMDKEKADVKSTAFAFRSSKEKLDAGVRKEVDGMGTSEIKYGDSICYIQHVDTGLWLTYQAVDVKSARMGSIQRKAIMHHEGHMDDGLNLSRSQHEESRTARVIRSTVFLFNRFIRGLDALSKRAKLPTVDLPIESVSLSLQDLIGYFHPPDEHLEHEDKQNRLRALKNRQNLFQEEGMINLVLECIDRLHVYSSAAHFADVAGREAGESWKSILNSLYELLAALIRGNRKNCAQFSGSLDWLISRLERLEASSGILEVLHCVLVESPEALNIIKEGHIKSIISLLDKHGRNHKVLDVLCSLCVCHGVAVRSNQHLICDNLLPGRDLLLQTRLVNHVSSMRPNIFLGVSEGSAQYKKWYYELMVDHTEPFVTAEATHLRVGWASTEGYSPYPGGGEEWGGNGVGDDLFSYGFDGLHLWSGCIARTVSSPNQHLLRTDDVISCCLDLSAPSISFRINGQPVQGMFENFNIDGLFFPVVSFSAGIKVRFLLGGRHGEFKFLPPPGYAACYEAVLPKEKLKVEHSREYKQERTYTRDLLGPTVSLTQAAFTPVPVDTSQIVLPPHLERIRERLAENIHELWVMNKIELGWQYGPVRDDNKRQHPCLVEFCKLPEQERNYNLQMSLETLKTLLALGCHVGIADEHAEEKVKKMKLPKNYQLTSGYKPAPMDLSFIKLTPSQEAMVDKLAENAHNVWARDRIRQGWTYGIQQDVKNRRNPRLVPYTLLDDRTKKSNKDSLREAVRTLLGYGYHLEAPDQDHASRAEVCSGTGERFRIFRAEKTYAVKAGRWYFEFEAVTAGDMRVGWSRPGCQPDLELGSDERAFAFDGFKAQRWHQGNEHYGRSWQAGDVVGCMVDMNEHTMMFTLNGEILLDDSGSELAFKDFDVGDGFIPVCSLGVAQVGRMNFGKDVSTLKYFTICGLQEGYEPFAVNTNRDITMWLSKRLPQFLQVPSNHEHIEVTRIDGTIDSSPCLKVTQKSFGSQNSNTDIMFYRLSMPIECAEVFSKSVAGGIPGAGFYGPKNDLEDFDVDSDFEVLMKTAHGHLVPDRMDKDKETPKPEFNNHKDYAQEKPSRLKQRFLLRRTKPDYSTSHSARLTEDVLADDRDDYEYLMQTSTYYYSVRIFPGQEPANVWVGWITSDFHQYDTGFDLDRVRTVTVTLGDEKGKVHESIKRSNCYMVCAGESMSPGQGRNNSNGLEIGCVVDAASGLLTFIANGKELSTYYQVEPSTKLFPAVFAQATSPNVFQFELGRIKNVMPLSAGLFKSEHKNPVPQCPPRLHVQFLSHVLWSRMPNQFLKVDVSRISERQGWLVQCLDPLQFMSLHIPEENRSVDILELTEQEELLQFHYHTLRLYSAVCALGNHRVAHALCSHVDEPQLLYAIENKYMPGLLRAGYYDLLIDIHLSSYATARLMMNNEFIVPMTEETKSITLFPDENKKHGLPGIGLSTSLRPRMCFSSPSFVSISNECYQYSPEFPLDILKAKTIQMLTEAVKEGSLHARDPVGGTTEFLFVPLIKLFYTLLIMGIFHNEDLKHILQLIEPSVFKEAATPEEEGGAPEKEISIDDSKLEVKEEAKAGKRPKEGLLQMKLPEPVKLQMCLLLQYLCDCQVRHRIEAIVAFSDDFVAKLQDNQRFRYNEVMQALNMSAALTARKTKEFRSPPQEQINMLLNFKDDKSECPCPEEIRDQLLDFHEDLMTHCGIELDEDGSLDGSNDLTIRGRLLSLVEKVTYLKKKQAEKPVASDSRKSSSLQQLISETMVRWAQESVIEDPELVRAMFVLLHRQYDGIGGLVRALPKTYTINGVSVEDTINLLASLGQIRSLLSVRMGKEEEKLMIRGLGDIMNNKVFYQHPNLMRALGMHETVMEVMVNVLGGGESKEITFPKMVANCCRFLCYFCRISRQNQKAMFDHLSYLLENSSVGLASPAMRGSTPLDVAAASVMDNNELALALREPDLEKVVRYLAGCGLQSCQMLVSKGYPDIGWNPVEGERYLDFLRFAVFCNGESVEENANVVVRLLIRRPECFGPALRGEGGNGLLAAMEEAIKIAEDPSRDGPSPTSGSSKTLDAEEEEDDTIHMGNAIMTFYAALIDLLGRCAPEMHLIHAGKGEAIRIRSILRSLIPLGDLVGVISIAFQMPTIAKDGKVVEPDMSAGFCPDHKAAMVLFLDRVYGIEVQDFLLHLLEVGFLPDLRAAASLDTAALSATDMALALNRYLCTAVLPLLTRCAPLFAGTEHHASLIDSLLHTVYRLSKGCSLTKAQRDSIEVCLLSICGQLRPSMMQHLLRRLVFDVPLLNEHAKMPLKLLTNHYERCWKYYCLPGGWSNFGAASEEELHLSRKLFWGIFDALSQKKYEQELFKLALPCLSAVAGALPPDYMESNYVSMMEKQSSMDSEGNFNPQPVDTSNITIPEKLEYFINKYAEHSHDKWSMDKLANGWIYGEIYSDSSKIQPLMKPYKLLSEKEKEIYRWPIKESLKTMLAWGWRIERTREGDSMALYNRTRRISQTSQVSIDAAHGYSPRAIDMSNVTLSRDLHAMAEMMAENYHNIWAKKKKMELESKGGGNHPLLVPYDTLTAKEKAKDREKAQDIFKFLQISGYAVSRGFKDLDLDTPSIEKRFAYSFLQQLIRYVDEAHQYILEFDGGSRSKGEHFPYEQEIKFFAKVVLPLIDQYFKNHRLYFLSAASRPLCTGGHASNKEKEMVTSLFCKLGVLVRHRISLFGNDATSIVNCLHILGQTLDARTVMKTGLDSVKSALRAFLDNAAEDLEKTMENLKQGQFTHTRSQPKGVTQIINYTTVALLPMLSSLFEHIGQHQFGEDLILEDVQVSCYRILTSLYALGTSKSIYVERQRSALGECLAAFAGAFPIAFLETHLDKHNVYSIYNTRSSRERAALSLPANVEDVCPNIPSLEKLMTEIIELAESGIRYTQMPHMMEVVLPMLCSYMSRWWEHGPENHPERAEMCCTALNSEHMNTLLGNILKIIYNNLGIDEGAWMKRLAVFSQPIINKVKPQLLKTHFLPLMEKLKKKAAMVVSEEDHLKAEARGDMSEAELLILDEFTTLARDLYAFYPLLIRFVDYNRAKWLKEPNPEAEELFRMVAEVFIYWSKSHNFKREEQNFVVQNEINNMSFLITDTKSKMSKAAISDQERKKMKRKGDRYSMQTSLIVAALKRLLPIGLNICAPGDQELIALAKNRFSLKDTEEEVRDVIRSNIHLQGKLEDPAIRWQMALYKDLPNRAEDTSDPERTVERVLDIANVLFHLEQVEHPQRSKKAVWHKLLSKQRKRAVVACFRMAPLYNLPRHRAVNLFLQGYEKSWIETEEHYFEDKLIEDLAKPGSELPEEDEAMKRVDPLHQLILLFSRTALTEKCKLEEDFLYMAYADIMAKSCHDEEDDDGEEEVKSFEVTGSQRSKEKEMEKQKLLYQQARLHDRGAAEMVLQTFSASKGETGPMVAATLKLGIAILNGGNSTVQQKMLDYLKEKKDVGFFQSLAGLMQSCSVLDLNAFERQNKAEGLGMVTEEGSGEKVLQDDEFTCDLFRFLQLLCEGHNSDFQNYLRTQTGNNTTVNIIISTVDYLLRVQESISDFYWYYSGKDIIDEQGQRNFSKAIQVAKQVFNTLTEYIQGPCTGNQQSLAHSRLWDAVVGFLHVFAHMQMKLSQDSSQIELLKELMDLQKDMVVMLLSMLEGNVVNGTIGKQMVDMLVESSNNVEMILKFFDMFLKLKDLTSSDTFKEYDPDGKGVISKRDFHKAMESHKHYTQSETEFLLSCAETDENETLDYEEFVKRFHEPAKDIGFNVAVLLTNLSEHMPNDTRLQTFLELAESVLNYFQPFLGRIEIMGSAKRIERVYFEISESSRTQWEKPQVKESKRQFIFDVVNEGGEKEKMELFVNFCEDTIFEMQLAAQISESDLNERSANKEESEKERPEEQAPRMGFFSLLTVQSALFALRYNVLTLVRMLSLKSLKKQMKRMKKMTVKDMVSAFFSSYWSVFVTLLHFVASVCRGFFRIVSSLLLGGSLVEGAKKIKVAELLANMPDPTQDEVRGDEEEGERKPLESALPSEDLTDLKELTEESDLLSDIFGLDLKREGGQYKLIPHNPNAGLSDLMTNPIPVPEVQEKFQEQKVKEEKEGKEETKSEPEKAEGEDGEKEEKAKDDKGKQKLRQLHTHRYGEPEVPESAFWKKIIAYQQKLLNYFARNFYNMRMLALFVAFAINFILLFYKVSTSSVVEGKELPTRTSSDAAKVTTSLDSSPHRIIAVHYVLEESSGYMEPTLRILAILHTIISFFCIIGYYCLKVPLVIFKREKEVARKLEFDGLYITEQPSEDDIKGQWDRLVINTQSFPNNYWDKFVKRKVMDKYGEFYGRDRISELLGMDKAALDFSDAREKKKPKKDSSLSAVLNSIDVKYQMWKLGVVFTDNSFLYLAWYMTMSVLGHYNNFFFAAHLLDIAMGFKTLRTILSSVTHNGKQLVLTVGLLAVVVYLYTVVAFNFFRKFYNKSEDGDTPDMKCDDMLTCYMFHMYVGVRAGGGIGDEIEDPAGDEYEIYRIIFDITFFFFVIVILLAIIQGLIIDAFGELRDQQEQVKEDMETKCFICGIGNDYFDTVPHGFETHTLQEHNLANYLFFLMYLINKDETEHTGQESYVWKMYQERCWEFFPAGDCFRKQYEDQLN
Target sequence in this assay (P68106 with tags, fused parts or gaps T15C/C23A/C77I partner): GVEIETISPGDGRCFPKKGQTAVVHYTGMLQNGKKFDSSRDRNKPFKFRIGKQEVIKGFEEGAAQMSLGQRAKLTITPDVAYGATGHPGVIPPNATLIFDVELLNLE

RyR2 [2] = molecular target: T1, RyR2; experiment: Steady-state F-DPc10 binding at the Z-line of saponin-permeabilized myocytes (confocal); set-up: endogenous in cells; host or cells: saponin-permeabilized adult rat ventricular myocytes; details: in-cell binding isotherm, [Ca2+]i 50 nmol/L
Method: Rat ventricular myocytes were isolated and permeabilized as previously described (Li et al., Circ Res, 2002; 90:309-316). All procedures were performed according to the Guiding Principles in the Care and Use of the Animals and were approved by the Council of American Physiological Society. DPc10, FKBP12.6, and CaM were labeled at specific sites with small fluorescence probes, similar to our previous studies (Guo et al., Circ Res, 2010; 106:1743-1752; Cornea et al., PNAS USA, 2009; 106:6128-6133; Guo et al., Biophys J, 2011; 101:2170-2177).
Confocal images was measured using a Biorad RADIANCE2100™ laser scanning confocal microscope equipped with an Argon ion laser, Green HeNe laser and with a Nikon Fluo x40 oil lens. FRET (fluorescence resonance energy transfer) experiments between CaM and DPc10, and FKBP12.6 and DPc10 were performed using an Olympus FV1000 confocal microscope. All experiments were done at room temperature.
Myocytes were exposed to […] F-DPc10, with intracellular [Ca^2+] ([Ca^2+]i) set at 50 nmol/L. F-DPc10 fluorescence is highest at the Z-lines, where RyR2 is concentrated, forming a typical cross-striated pattern. The difference between fluorescence intensity at the Z-line (Fz) and M-line (FM) is taken to represent [F-DPc10] specifically bound at the myocyte Z-line. We calibrated the bound [F-DPc10] in permeabilized myocytes using the linear relationship between F-DPc10 fluorescence and bath [F-DPc10] (FIG. 7B). […] To further test whether this Z-line-associated F-DPc10 represents RyR2-bound F-DPc10, we measured FRET between FKBP12.6 (known to specifically bind to RyR2 with subnanomolar affinity) (Guo et al., Circ Res, 2010; 106:1743-1752) and F-DPc10. […] Donor (AF568-FKBP12.6) fluorescence at the Z-line was quenched by HF647-DPc10, but the M-line signal was not (FIG. 9B). […]
Target sequence in this assay (B0LPN4 whole entry): as the sequence (B0LPN4 whole entry) above

RyR2 [3] = molecular target: T1, RyR2; experiment: F-DPc10 wash-in and washout kinetics at the myocyte Z-line; format: binding; set-up: endogenous in cells; host or cells: saponin-permeabilized adult rat ventricular myocytes
Method: To characterize DPc10-binding kinetics at Z-lines, we performed F-DPc10 wash-in (500 nmol/L) and washout experiments in permeabilized myocytes (FIG. 10A). Association (τwash-in=79.0±3.2 minutes) and dissociation (τwashout=149.8±4.4 minutes) were very slow compared with similar FKBP12.6 measurements (Guo et al., Circ Res, 2010; 106:1743-1752). From the wash-in/washout measurements, we calculated the association and dissociation rates constants, kon and koff, respectively, according to the following equation: kwash-in=[F-DPc10]kon+koff where kwashout≈koff and k=1/τ (s^−1). Accordingly, kon=202±20 (L mol^−1 s^−1) and koff=0.11±0.01 (10^−3 s^−1). […] We repeated this kinetic analysis using FRET between FKBP12.6 and DPc10, thus assessing the RyR2-specific DPc10 binding (FIG. 11A AND 11B). […] Based on these kinetic and affinity analyses, we infer that most of the Z-line-specific DPc10 binding is to RyR2. This is also consistent with Bmax, which would imply ≈1 DPc10 per RyR2 monomer.
We were intrigued by the slow kwash-in and conducted measurements to further understand the basis of this slow association. We tested the hypothesis that at resting [Ca^2+]i, DPc10 access to its RyR2 binding site is sterically hindered. If the N-terminal and central domains are tightly zipped to each other, then this interaction may occlude the DPc10-binding site on the RyR2, thus limiting the kon for DPc10. Alternatively, a limiting factor may be the rate at which DPc10 adopts a conformation that can bind to RyR2. To discern between these mechanisms, we determined the effect of [F-DPc10] on τwash-in. If the small fraction of DPc10 in the right conformation limits binding rate, then τwash-in should be faster at higher [F-DPc10], according to Equation. […] Instead, a 10-fold increase in [F-DPc10] had no significant effect on the τwash-in, although it did increase Bmax (FIG. 10B). The same was seen when using FKBP12.6-DPc10 FRET to assess τwash-in with 0.5 vs 5 μmol/L HF647-DPc10 (FIG. 12A AND 12B).
In our working model, under resting conditions, the RyR2 closed state may be stabilized by the interaction between the N-terminal and central domain in the zipped state. We hypothesized that conditions that promote RyR2 opening might enhance the rate of unzipping and accelerate τwash-in for F-DPc10. To test this, we first monitored F-DPc10 wash-in at elevated Ca^2+ (500 nmol/L). However, the 13% faster mean τwash-in was not significant (FIG. 13A). […] Thus, we preincubated myocytes with ryanodine (100 μmol/L) plus caffeine ([…]), which are known to favor long RyR2 openings and were reported to cause RyR2 domain unzipping in HEK293 cells (Liu et al., J Cell Sci, 2010; 123: 1775-1784). Ryanodine+caffeine produced a 21% faster τwash-in (P=0.002; FIG. 13B). However, the most significant effect was seen after presaturating RyR2 with NF-DPc10 (and then NF-DPc10 washout with F-DPc10 present; FIG. 13A). […] Assuming that koff of NF-DPc10 is the same as for F-DPc10 and using Equation, the kon is increased by 3.2-fold by unzipping as a result of prebinding of NF-DPc10 to the RyR2. Our working hypothesis is that the RyR2 open state may increase the probability of an RyR2 shifting to the unzipped state and may allow faster F-DPc10 wash-in. It also seems that the RyR2 open state (favored by caffeine-ryanodine) differs from the unzipped state (bound with DPc10).
Both FKBP12.6 and CaM bind to the RyR2 and can reduce channel opening, which might alter DPc10 binding. […] Neither CaM nor FKBP12.6 pretreatment altered M-line F-DPc10 fluorescence (FIG. 15). […] We infer that CaM stabilizes the domain interaction between N-terminal and central domains in the zipped state and thereby may reduce DPc10 access to its binding site. To test for direct CaM-DPc10 interaction, we performed control FRET measurements between donor-labeled CaM and acceptor-labeled DPc10 in solution in the absence of RyR. The maximal FRET efficiency (<1%) ruled out direct CaM-DPc10 interaction. […]
Target sequence in this assay (B0LPN4 whole entry): as above

[4] = calculated from wash-in/washout

CC[C@H](C)[C@H](NC(=O)CNC(=O)[C@H](Cc1ccc(O)cc1)NC(=O)[C@@H](NC(=O)[C@H](CCCNC(=N)N)NC(=O)[C@H](CC(=O)O)NC(=O)[C@H](CC(C)C)NC(=O)[C@H](Cc1ccccc1)NC(=O)[C@H](CC(C)C)NC(=O)[C@@H](NC(=O)[C@H](CCSC)NC(=O)[C@H](C)NC(=O)[C@H](C)NC(=O)[C@H](CCCCN)NC(=O)[C@H](Cc1c[nH]cn1)NC(=O)[C@H](CC(=O)O)NC(=O)[C@@H]1CCCN1C(=O)[C@H](CS)NC(=O)[C@H](Cc1ccccc1)NC(=O)CNC(=O)c1ccc2c(c1)C(=O)OC21c2ccc(O)cc2Oc2cc(O)ccc21)C(C)C)C(C)C)C(=O)N[C@@H](CCC(=O)O)C(=O)N[C@H](C(=O)N[C@@H](CCC(N)=O)C(=O)N[C@@H](CC(=O)O)C(=O)N[C@@H](Cc1ccccc1)C(=O)N[C@@H](CC(C)C)C(=O)N[C@@H](CC(C)C)C(=O)N[C@@H](Cc1c[nH]cn1)C(=O)N[C@@H](CC(C)C)C(=O)N[C@@H](CC(C)C)C(=O)N[C@@H](CCC(=O)O)C(=O)N[C@H](C(=O)NCC(=O)N[C@@H](Cc1ccccc1)C(=O)N[C@@H](CC(C)C)C(=O)N1CCC[C@H]1C(=O)O)C(C)C)C(C)C [F-DPc10] (5FAM-GFCPDHKAAMVLFLDRVYGIEVQDFLLHLLEVGFLP-OH)
τwash-in in controls (RyR2 [1]): ~80 min | maximal binding (Bmax), concentration of F-DPc10-binding sites (RyR2 [2]): 1.59±0.03 μmon | association τwash-in (RyR2 [3]; F-DPc10 500 nmol/L): 79.0 ± 3.2 min | dissociation τwashout (RyR2 [3]; F-DPc10 500 nmol/L): 149.8 ± 4.4 min | koff (RyR2 [3]; [4]): 0.00011 ± 1e-05 s⁻¹ | kon (RyR2 [3]; [4]): 202 ± 20 M⁻¹ s⁻¹ | kon slower than that measured for FKBP12.6 (RyR2 [3]; similar conditions): ≈ 1800 fold
